From the supplement of paper PMC10307832

What follows are cell lines tested with COC1=C(C=C(C=C1)C2=CC3=NC=CN3C(=N2)NC4=C(C=CC=N4)C(=O)N)OC [BAY61-3606] + Nc1ncn([C@H]2C[C@H](O)[C@@H](CO)O2)c(=O)n1 [Decitabine] (partner 2 µM) (assay: relative viability (nuclei count vs DMSO), 5 days (fraction); higher = more cells survive). Settings: first compound 0.02 µM.
In short: (§1)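 For relative viability, nuclei counts in treated wells were divided by those in vehicle wells. Lung cancer cell lines had been pin-tool dosed in 1536-well plates the day after seeding and cultured for 5 days, then fixed and stained in one step (final 0.05% Triton X-100, 1% formaldehyde, 1 ug/ml Hoechst) and imaged at 4×. Doses were one drug alone or a fixed anchor-drug dose plus five library-drug doses (not always all listed) in √10 steps, and values are duplicate-plate medians.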

Point of comparison: EPLC-272H, relative viability 0.409. Against it:
- ChaGo-K-1 — higher, 0.53
- NCI-H322M — higher, 0.747
- HCC-78 — higher, 0.643
- LXF-289 — lower, 0.399
- BEN — higher, 0.798
- HARA — higher, 0.515
- HCC-827 — lower, 0.327
- NCI-H520 — higher, 0.508
- LOU-NH91 — higher, 0.809
- NCI-H2023 — lower, 0.221
- A-427 — higher, 0.579
- NCI-H647 — lower, 0.382
- PC-3 [JPC-3] — higher, 0.822
- NCI-H1755 — higher, 0.671
- NCI-H650 — lower, 0.358
- NCI-H3122 — higher, 0.463
- NCI-H441 — lower, 0.249
- 201T — higher, 0.87
- NCI-H1975 — lower, 0.394
- NCI-H2405 — higher, 0.798
- NCI-H1355 — lower, 0.391
- NCI-H838 — higher, 0.448
- NCI-H1666 — higher, 0.784
- NCI-H2347 — higher, 0.731
- NCI-H1915 — lower, 0.258

Same assay, conditions: first compound 0.06325 µM

Point of comparison: NCI-H322M, relative viability 0.666. Against it:
- ChaGo-K-1 — lower, 0.543
- HCC-78 — higher, 0.676
- LXF-289 — lower, 0.402
- BEN — higher, 0.688
- HARA — lower, 0.512
- HCC-827 — lower, 0.321
- NCI-H520 — higher, 0.67
- LOU-NH91 — higher, 0.805
- NCI-H2023 — lower, 0.297
- A-427 — lower, 0.561
- NCI-H647 — lower, 0.433
- PC-3 [JPC-3] — higher, 0.711
- NCI-H1755 — the same, 0.666
- NCI-H650 — lower, 0.302
- NCI-H3122 — lower, 0.559
- NCI-H441 — lower, 0.223
- 201T — higher, 0.923
- NCI-H1975 — lower, 0.416
- HOP-62 — lower, 0.2
- NCI-H2405 — higher, 0.78
- NCI-H1355 — lower, 0.377
- NCI-H838 — lower, 0.508
- NCI-H1666 — lower, 0.655
- EPLC-272H — lower, 0.403
- NCI-H2347 — lower, 0.63
- NCI-H1915 — lower, 0.261

Same assay, conditions: first compound 0.2 µM

Point of comparison: LXF-289, relative viability 0.411. Against it:
- ChaGo-K-1 — higher, 0.479
- NCI-H322M — higher, 0.662
- HCC-78 — higher, 0.798
- BEN — higher, 0.77
- HARA — higher, 0.67
- HCC-827 — lower, 0.352
- NCI-H520 — higher, 0.515
- LOU-NH91 — higher, 0.847
- NCI-H2023 — lower, 0.237
- A-427 — higher, 0.565
- NCI-H647 — lower, 0.391
- PC-3 [JPC-3] — higher, 0.848
- NCI-H1755 — higher, 0.656
- NCI-H650 — lower, 0.338
- NCI-H3122 — higher, 0.494
- NCI-H441 — lower, 0.242
- 201T — higher, 0.864
- NCI-H1975 — higher, 0.438
- HOP-62 — lower, 0.228
- NCI-H2405 — higher, 0.703
- NCI-H1355 — lower, 0.389
- NCI-H838 — higher, 0.47
- NCI-H1666 — higher, 0.658
- EPLC-272H — lower, 0.369
- NCI-H2347 — higher, 0.599
- NCI-H1915 — lower, 0.265

Same assay, conditions: first compound 0.6325 µM

Point of comparison: PC-3 [JPC-3], relative viability 0.947. Against it:
- ChaGo-K-1 — lower, 0.51
- NCI-H322M — lower, 0.706
- HCC-78 — lower, 0.722
- LXF-289 — lower, 0.396
- BEN — lower, 0.769
- HARA — lower, 0.688
- HCC-827 — lower, 0.317
- NCI-H520 — lower, 0.518
- LOU-NH91 — lower, 0.838
- NCI-H2023 — lower, 0.266
- A-427 — lower, 0.611
- NCI-H647 — lower, 0.416
- NCI-H1755 — lower, 0.673
- NCI-H650 — lower, 0.385
- NCI-H3122 — lower, 0.347
- NCI-H441 — lower, 0.256
- 201T — lower, 0.896
- NCI-H1975 — lower, 0.421
- HOP-62 — lower, 0.266
- NCI-H2405 — lower, 0.779
- NCI-H1355 — lower, 0.359
- NCI-H838 — lower, 0.454
- NCI-H1666 — lower, 0.737
- EPLC-272H — lower, 0.396
- NCI-H2347 — lower, 0.698
- NCI-H1915 — lower, 0.253

Same assay, conditions: first compound 2 µM

Point of comparison: NCI-H2405, relative viability 0.643. Against it:
- ChaGo-K-1 — lower, 0.531
- NCI-H322M — higher, 0.657
- HCC-78 — higher, 0.857
- LXF-289 — lower, 0.405
- BEN — higher, 0.755
- HARA — lower, 0.585
- HCC-827 — lower, 0.308
- NCI-H520 — lower, 0.557
- LOU-NH91 — higher, 0.746
- NCI-H2023 — lower, 0.19
- A-427 — lower, 0.622
- NCI-H647 — lower, 0.256
- PC-3 [JPC-3] — higher, 0.781
- NCI-H1755 — higher, 0.773
- NCI-H650 — lower, 0.301
- NCI-H3122 — lower, 0.511
- NCI-H441 — lower, 0.253
- 201T — higher, 0.834
- NCI-H1975 — lower, 0.271
- HOP-62 — lower, 0.22
- NCI-H1355 — lower, 0.361
- NCI-H838 — lower, 0.393
- NCI-H1666 — higher, 0.686
- EPLC-272H — lower, 0.33
- NCI-H2347 — higher, 0.666
- NCI-H1915 — lower, 0.23

Each cell line was assayed with COC1=C(C=C(C=C1)C2=CC3=NC=CN3C(=N2)NC4=C(C=CC=N4)C(=O)N)OC [BAY61-3606] + CC(=O)Nc1cccc(-n2c(=O)n(C3CC3)c(=O)c3c(Nc4ccc(I)cc4F)n(C)c(=O)c(C)c32)c1 [Trametinib] (partner 0.02 µM) in the same assay as above. Settings: first compound 0.02 µM.
In short: as §1

Point of comparison: NCI-H1355, relative viability 0.424. Against it:
- ChaGo-K-1 — higher, 0.947
- NCI-H322M — higher, 0.533
- HCC-78 — higher, 0.763
- LXF-289 — higher, 0.694
- BEN — higher, 1.21
- HARA — higher, 0.6
- HCC-827 — higher, 0.511
- NCI-H520 — higher, 0.685
- LOU-NH91 — higher, 0.842
- NCI-H2023 — higher, 0.571
- A-427 — higher, 0.902
- NCI-H647 — higher, 0.479
- PC-3 [JPC-3] — higher, 0.772
- NCI-H1755 — higher, 0.768
- NCI-H650 — higher, 1.09
- NCI-H3122 — lower, 0.235
- NCI-H441 — higher, 0.491
- 201T — higher, 0.728
- NCI-H1975 — lower, 0.409
- NCI-H2405 — higher, 0.637
- NCI-H838 — higher, 0.54
- NCI-H1666 — higher, 0.828
- EPLC-272H — lower, 0.309
- NCI-H2347 — lower, 0.287
- NCI-H1915 — lower, 0.35

Same assay, conditions: first compound 0.06325 µM

Point of comparison: NCI-H322M, relative viability 0.522. Against it:
- ChaGo-K-1 — higher, 0.893
- HCC-78 — higher, 0.745
- LXF-289 — higher, 0.673
- BEN — higher, 1.01
- HARA — lower, 0.52
- HCC-827 — higher, 0.585
- NCI-H520 — higher, 0.704
- LOU-NH91 — higher, 0.766
- NCI-H2023 — higher, 0.64
- A-427 — higher, 0.755
- NCI-H647 — lower, 0.496
- PC-3 [JPC-3] — higher, 0.668
- NCI-H1755 — higher, 0.853
- NCI-H650 — higher, 1.05
- NCI-H3122 — lower, 0.24
- NCI-H441 — lower, 0.417
- 201T — higher, 0.712
- NCI-H1975 — lower, 0.295
- HOP-62 — lower, 0.416
- NCI-H2405 — higher, 0.559
- NCI-H1355 — lower, 0.447
- NCI-H838 — lower, 0.496
- NCI-H1666 — higher, 0.973
- EPLC-272H — lower, 0.275
- NCI-H2347 — lower, 0.332
- NCI-H1915 — lower, 0.29

Same assay, conditions: first compound 0.2 µM

Point of comparison: NCI-H647, relative viability 0.413. Against it:
- ChaGo-K-1 — higher, 0.921
- NCI-H322M — higher, 0.542
- HCC-78 — higher, 0.738
- LXF-289 — higher, 0.722
- BEN — higher, 1.11
- HARA — higher, 0.781
- HCC-827 — higher, 0.539
- NCI-H520 — higher, 0.751
- LOU-NH91 — higher, 0.826
- NCI-H2023 — higher, 0.518
- A-427 — higher, 0.782
- PC-3 [JPC-3] — higher, 0.741
- NCI-H1755 — higher, 0.792
- NCI-H650 — higher, 0.922
- NCI-H3122 — lower, 0.246
- NCI-H441 — lower, 0.363
- 201T — higher, 0.771
- NCI-H1975 — lower, 0.354
- HOP-62 — higher, 0.414
- NCI-H2405 — higher, 0.711
- NCI-H1355 — lower, 0.409
- NCI-H838 — higher, 0.547
- NCI-H1666 — higher, 0.822
- EPLC-272H — lower, 0.281
- NCI-H2347 — lower, 0.285
- NCI-H1915 — lower, 0.325

Same assay, conditions: first compound 0.6325 µM

Point of comparison: HOP-62, relative viability 0.456. Against it:
- ChaGo-K-1 — higher, 0.872
- NCI-H322M — higher, 0.499
- HCC-78 — higher, 0.836
- LXF-289 — higher, 0.752
- BEN — higher, 1.21
- HARA — higher, 0.724
- HCC-827 — higher, 0.583
- NCI-H520 — higher, 0.85
- LOU-NH91 — higher, 0.794
- NCI-H2023 — higher, 0.587
- A-427 — higher, 0.798
- NCI-H647 — higher, 0.551
- PC-3 [JPC-3] — higher, 0.726
- NCI-H1755 — higher, 0.769
- NCI-H650 — higher, 0.93
- NCI-H3122 — lower, 0.242
- NCI-H441 — higher, 0.483
- 201T — higher, 0.753
- NCI-H1975 — lower, 0.325
- NCI-H2405 — higher, 0.728
- NCI-H1355 — higher, 0.46
- NCI-H838 — higher, 0.575
- NCI-H1666 — higher, 0.792
- EPLC-272H — lower, 0.294
- NCI-H2347 — lower, 0.296
- NCI-H1915 — lower, 0.315

Same assay, conditions: first compound 2 µM

Point of comparison: NCI-H2023, relative viability 0.413. Against it:
- ChaGo-K-1 — higher, 0.939
- NCI-H322M — higher, 0.486
- HCC-78 — higher, 0.859
- LXF-289 — higher, 0.766
- BEN — higher, 1.2
- HARA — higher, 0.54
- HCC-827 — higher, 0.608
- NCI-H520 — higher, 0.644
- LOU-NH91 — higher, 0.706
- A-427 — higher, 0.817
- NCI-H647 — lower, 0.319
- PC-3 [JPC-3] — higher, 0.654
- NCI-H1755 — higher, 0.762
- NCI-H650 — higher, 0.838
- NCI-H3122 — lower, 0.249
- NCI-H441 — lower, 0.371
- 201T — higher, 0.735
- NCI-H1975 — lower, 0.254
- HOP-62 — lower, 0.336
- NCI-H2405 — higher, 0.518
- NCI-H1355 — lower, 0.345
- NCI-H838 — lower, 0.362
- NCI-H1666 — higher, 0.768
- EPLC-272H — lower, 0.263
- NCI-H2347 — lower, 0.244
